Tests used:
[1] = system: Fmr1 KO and wildtype NPCs; test: Differentiation assay of cultured NPCs (Tuj1 neurons, GFAP astrocytes); type: cell-based, mouse; details: 4 days
Protocol: NPCs were isolated from the dentate gyms of 8 to 10-week-old male Fmr1 KO mice and wild-type (wildtype) littermate controls based on our published methods (12, 64). Independently isolated cells serve as biological replicates. Proliferation and differentiation of NPCs was analyzed as described (11, 12, 61). We used only early passage cells (between passage 4 and 10) and only the same passage numbers of wildtype and Fmr1 KO cells. For each experiment, triplicate wells of cells were analyzed, and results were averaged as one data point (n=1). At least 3 independent biological replicates were used (n=3) for statistical analyses.
Proliferation and differentiation of aNPCs were analyzed using our published methods (Guo et al., Nature Med. (2011); Guo et al., Neuron 70, 924-938 (2011); Luo et al., PLoS Genet 6 (2010); Liu et al., Cell Stem Cell 6 (2010)). We used only early passage cells (between passage 4 and 10) and only the same passage numbers of wild type (WT) and Fmr1 KO cells. For each experiment, triplicate wells of cells were analyzed, and results were averaged as one data point (n=1). At least 3 independent experiments (n=3) were performed and used for statistical analyses for each analysis. […] For the differentiation assay, at 24 h post-plating, cells were changed into differentiation medium, Neurobasal A, containing 5 μM forskolin (Sigma-Aldrich, F-6886) and 1 μM retinoic acid (Sigma-Aldrich, R-2625) for 4 d, followed by fixation with 4% paraformaldehyde for 30 min, and then washed with Dulbecco's Phosphate Buffered Saline (DPBS), pH 7.4 for 30 min. Immunocytochemistry staining was carried out as described (Guo et al., Nature Med. (2011); Guo et al., Neuron 70, 924-938 (2011); Luo et al., PLoS Genet 6 (2010); Liu et al., Cell Stem Cell 6 (2010)). Briefly, cells were preblocked using DPBS containing 5% normal goat serum (VECTOR, S-1000) and 0.1% Triton X-100 for 30 min, followed by overnight incubation with primary antibodies: mouse anti-Tuj1 (1:1000, Promega, G712A) and rabbit anti-S100β (1:1000, Dako, Z0334).
After washing with Dulbecco s Phosphate Buffered Saline (DPBS), cells were incubated with secondary antibodies that included goat anti-mouse 568 (1:1000, Invitrogen, A11031), goat anti-rabbit 488 (1:1000, Invitrogen, A11008) followed by counterstaining with the fluorescent nuclear dye 4′,6-diamidino-2′-phenylindole dihydrochloride (DAPI, Sigma-Aldrich, B2261). […] (VECTOR, H-1000), the numbers of Tuj1, GFAP-positive cells were quantified using an Olympus BX51 microscope equipped with a MicroFire digital camera (Optronics) and a motorized stage using a 20× objective lens. The quantification was carried out using an unbiased stereology method with assistance from StereoInvestigator software (MBF Biosciences). The percentage of differentiated cells was calculated as the number of Tuj1- or GFAP-labeled cells divided by the total number of cells stained with DAPI.

[2] = system: NSCs of Fmr1 KO and wildtype mice; test: In vivo NSC activation in the adult dentate gyrus (GFP+GFAP+MCM2+); parameters: species or system mouse; details: 10 mg/kg every other day, 5 injections over 9 days
Protocol: (§1) All animal procedures were performed according to protocols approved by the University of Wisconsin-Madison Care and Use Committee. All mice were on C57B/L6 genetic background. The Fmr1 KO/Nestin-GFP mice (Fmr1−/y::Nestin-GFP) were created by crossing female Fmr1 heterozygous KO mice (Fmr1+/−) (59) with homozygous Nestin-GFP transgenic males (60). Generation of FMRP inducible conditional mutant mice (Fmr1loxP/y::Nestin-CreERT2::Rosa26-tdt) and tamoxifen injections to induce recombination were performed as described (12). To induce recombination, mice (6-weeks old) received Tamoxifen (Sigma-Aldrich) daily for 5 d (160 mg/kg) as described (12). Nutlin-3 (10 mg/kg) was given to 7-8 week-old mice or 20-week old mice through IP injections every other day for 5 injections and sacrificed at either 24 hours, 4 weeks, 12, or 20 weeks after the last injection. […]
The total numbers of GFP^+ or tdT^+ cells in the dentate gyms of each animal were counted on a Zeiss Apotome microscope using unbiased stereology (StereoInvestigator software, MBF Biosciences, Inc). […] Dentate gyms volume was measured using StereoInvestigator as described (11, 12). […] Briefly, at least 50 GFP^+ or BrdU^+ cells in the dentate gyms were randomly selected, and their colocalization with cell-lineage markers was determined using a Nikon A1 confocal microscope and quantified using ImageJ software (NIH).

Fmr1 KO mice [3] = test: Novel location test (NLT); type: in vivo, mouse; details: for spatial memory deficits in the novel location test, long-term effect: tested at 24 weeks old
Protocol: (§2) All animal procedures were performed according to protocols approved by the University of Wisconsin-Madison Care and Use Committee. All mice were on C57B/L6 genetic background. The Fmr1 KO/Nestin-GFP mice (Fmr1−/y::Nestin-GFP) were created by crossing female Fmr1 heterozygous KO mice (Fmr1+/−) (59) with homozygous Nestin-GFP transgenic males (60). Generation of FMRP inducible conditional mutant mice (Fmr1loxP/y::Nestin-CreERT2::Rosa26-tdt) and tamoxifen injections to induce recombination were performed as described (12). To induce recombination, mice (6-weeks old) received Tamoxifen (Sigma-Aldrich) daily for 5 d (160 mg/kg) as described (12). Nutlin-3 (10 mg/kg) was given to 7-8 week-old mice or 20-week old mice through IP injections every other day for 5 injections and sacrificed at either 24 hours, 4 weeks, 12, or 20 weeks after the last injection. For NSC differentiation analysis, mice also received four BrdU injections (100 mg/kg) between day 2 and 3 of Nutlin-3 injections. To induce recombination in FMRP inducible conditional mutant mice (Fmr1^loxP/y::Nestin-CreER^T2::Rosa26-tdt) mice, mice 6-weeks old male mice received Tamoxifen (Sigma-Aldrich) daily for 5 days (160 mg kg-1 i.p., 30 mg ml^−1 in 10% ethanol mixed with sunflower oil, SigmaAldrich) based on a published procedure (13). BrdU (Sigma-Aldrich, B5002) was made in a concentration of 20 mg/mL in PBS. Nutlin-3 (Nt3, Cayman Chemical, 10004372) was made in a concentration of 100 mg/mL in dimethyl sulfoxide (DMSO).
This test measures spatial memory through an evaluation of the ability of mice to recognize the new location of a familiar object with respect to spatial cues. The experimental procedure was performed as previously described (65). The mice were exposed to 2 identical objects for 6 minutes during the acquisition phase 3 times and tested at 3 minutes later. Object preference was evaluated during this session. During the trial session, one of the objects was moved to a novel location, and the mice were allowed to explore the objects for 6 minutes, and the total time spent exploring each object was measured. Exploration was considered as any investigative behavior (i.e., head orientation, sniffing occurring within <1.0 cm) or deliberate contact occurring with each object. The discrimination index was calculated as the percentage of time spent investigating the object in the new location minus the percentage of time spent investigating the object in the old location: discrimination index=(Novel Location exploration time/total exploration time×100)−(old Location exploration time/total exploration time×100). All experiments were videotaped and scored by scientists who were blinded to experimental conditions.

Fmr1 KO mice [4] = test: Novel object recognition (NOR) test; type: in vivo, mouse
Protocol: as §2
This test is based on the natural propensity of rodents to preferentially explore novel objects over familiar ones. The experimental procedure was performed as previously described (38). On the first day, mice were habituated for 10 min to the maze in which the task was performed. On the second day, mice were put back in the maze for 10 min, and two identical objects were presented. 24 hours later, one of the familiar objects was replaced with a novel object, and the mice were again placed in the maze and were allowed to explore for 10 min, and the total time spent exploring each of the two objects (novel and familiar) was measured. The discrimination index was calculated as the difference between the percentages of time spent investigating the novel object and the time spent investigating the familiar objects: discrimination index=(novel object exploration time/total exploration time×100)−(familiar object exploration time/total exploration time×100). All experiments were videotaped and scored by scientists who were blinded to experimental conditions.

Open field activity test = type: in vivo, mouse; details: wildtype and Fmr1 KO mice; Nutlin-3 10 mg/kg, 5 injections
Protocol: as §1, with “injection. For NSC differentiation analysis, mice also received four BrdU injections (100 mg/kg) between day 2 and 3 of Nutlin-3 injections.” for “injection.”
Mice were subjected to open field testing for evaluation of locomotor activity and general anxiety. Activity was recorded at 10-min intervals for total 30 min by means of a computer-operated tracking system (Omnitech Electronics Inc, USA) Total distance moved, and ratio of entry time into the Centre and periphery of arena were measured.

[5] = Fmr1 KO NPCs, 1 μM MK2206, 2 μM Nutlin-3, 1 μM RG7112
[6] = wildtype NPCs, 1 μM MK2206, 2 μM Nutlin-3
[7] = Fmr1 KO mice treated at 20 weeks old (middle aged), 24-weeks-old at test
[8] = Fmr1 KO mice, treated as young adults, tested 4 weeks later
[9] = wildtype mice, tested 4 weeks after treatment

SMILES: COc1ccc(C2=N[C@@H](c3ccc(Cl)cc3)[C@@H](c3ccc(Cl)cc3)N2C(=O)N2CCNC(=O)C2)c(OC(C)C)c1 [Nutlin-3]
- astroglial differentiation (GFAP+) [1, 5]: specifically rescued astroglial differentiation phenotypes
- neuronal differentiation (Tuj1+) [1, 5]: rescued neuronal differentiation phenotypes
- astroglial differentiation (GFAP+) [1, 6]: without a significant effect on wildtype NPCs
- neuronal differentiation (Tuj1+) [1, 6]: without a significant effect on wildtype NPCs
- NSC activation (percentage of activated NSCs among total NSCs) ([2]; Fmr1 KO mice): specifically reduced NSC activation in Fmr1 KO mice to wildtype levels
- NSC activation (percentage of activated NSCs among total NSCs) ([2]; wildtype mice): no significant effect on wildtype mice
- spatial memory deficits in the novel location test, long-term effect (Fmr1 KO mice [3]; Fmr1 KO mice treated at 8 weeks old): long-term effects to fully rescue spatial memory deficits
- spatial memory deficits in the novel location test (Fmr1 KO mice [3]; [7]): fully rescued spatial memory deficits
- performance on the novel location test (discrimination index) (Fmr1 KO mice [3]; [8]): rescued performance
- spatial memory deficits in the novel location test, long-term effect (Fmr1 KO mice [3]; Fmr1 conditional KO mice treated at 8 weeks old): long-term effects to fully rescue spatial memory deficits
- performance on the novel location test (discrimination index) (Fmr1 KO mice [3]; [9]): no significant effect on wildtype mice
- cognitive deficits in the NOR test, long-term effect (Fmr1 KO mice [4]; Fmr1 KO mice treated at 8 weeks old, tested at 24 weeks old): long-term effects to fully rescue cognitive deficits
- cognitive deficits in the NOR test (Fmr1 KO mice [4]; [7]): fully rescued cognitive deficits
- performance on the novel object recognition test (discrimination index) (Fmr1 KO mice [4]; [8]): rescued performance
- performance on the novel object recognition test (discrimination index) (Fmr1 KO mice [4]; [9]): no significant effect on wildtype mice
- locomotor activity and anxiety (total distance, center/periphery entry ratio) (Open field activity test): no significant effect
